Source: US20250114286A1, “METHOD FOR STABILIZING CERAMIDE AND COSMETIC COMPOSITION COMPRISING STABILIZED CERAMIDE” (COSMECCA KOREA Co., Ltd., priority 2023, published 2025)

Experiments:
[1] = DPPH radical scavenging activity test; type: biochemical; details: positive control at 0.01%
Protocol: In order to confirm the anti-oxidation efficacy of ceramide and bioactive material-containing nanoparticle capsules, a DPPH radical scavenging activity test was conducted. The DPPH radical scavenging activity was measured by the reducing power of the sample relative to the DPPH radical. A 0.4 mM solution was prepared by dissolving DPPH (1,1-Diphenyl-2-picrylhydrazyl) reagent in ethanol. Then 100 μL of the solution of each sample corresponding to Example 1, Comparative Examples 1, and 2, or positive control BHT (Butylated hydroxyl toluene or 2,6-Di-tert-butyl-p-cresol) was dissolved in ethanol, was added to 100 μL of the 0.4 mM DPPH solution in a 96 well plate and mixed. At this time, ethanol was treated as a negative control, and after mixing, the mixture reacted at 37° C. for 30 minutes. Absorbance was measured at 517 nm using ELISA reader, and the DPPH radical scavenging ability (%) of the sample or BHT as a positive control was calculated using the following formula.
DPPH radical scavenging ability (%)={1−(absorbance of positive control or sample/absorbance of control)}×100

AQP3 = experiment: Moisturizing efficacy: AQP3 mRNA expression by qRT-PCR in UVB-irradiated HDFa cells; type: cell-based, Human; details: UVB 15 mJ/cm^2, positive control at 0.01%
Protocol: In order to confirm the moisturizing efficacy of ceramide and bioactive substance-containing nanoparticle capsule, the effect on AQP3 expression was evaluated. After inoculating Human dermal fibroblast (HDFa) cell lines, they were cultured at 37° C. for 24 hours under 5% CO2 in Fibroblast Basal Medium (Medium 106) containing 100 IU/mL penicillin and 100 μg/mL streptomycin. The medium of each well was removed and replaced with fresh serum-free medium. Each well was subjected to pretreatment for 4 hours by administering the samples corresponding to Example 1 and Comparative Examples 1 and 2 at each concentration. 15 mJ/cm^2 UVB was irradiated to each well plate by a UVB irradiation device (vilber loumet, France). The sample was treated with the diluted serum-free medium, and then further cultured for 24 hours. At this time, a negative control was treated with PBS, and a positive control was treated with Hyaluronic acid at 0.01%. After the cell culture was completed, the cells were lysed using Ribo Ex™ Total RNA Isolation Solution (GeneAll Biotechnology, Korea) and scraper, and then 0.2 mL chloroform (Sigma-Aldrich, USA) was added thereto to perform centrifugation (12,000 rpm, 4° C., 30 minutes). […]

Molecule | DPPH radical scavenging ability (%) [1] [%] | Relative AQP3 expression (% of control) (AQP3)
Cc1cc(C(C)(C)C)c(O)c(C(C)(C)C)c1 [BHT, 2,6-Di-tert-butyl-p-cresol] | 62.08 | 
Hyaluronic acid |  | 149.52 % of control
